In PMC3496871 (Molecular bioSystems, 2012):
“Also recorded” adds a separate entry of the source.

Key:
Eis_Mtb [1] = molecular target: T1, Eis_Mtb (Mycobacterium tuberculosis, UniProt P9WFK7); type: biochemical; details: AG 0.1 mM, AcCoA 0.5 mM, Eis 0.5 μM
Eis_Ava [2] = molecular target: T2, Eis_Ava (Trichormus variabilis (Anabaena variabilis), UniProt Q3M362); assay: UV-Vis assay of Eis_Ava activity against KAN and 6′-glycinyl-KAN; details: AG 0.1 mM, AcCoA 0.5 mM, Eis 0.5 μM
Eis_Msm [3] = molecular target: T3, Eis_Msm (Mycolicibacterium smegmatis, UniProt A0QY29); assay: UV-Vis assay of Eis_Msm activity against KAN and 6′-glycinyl-KAN; details: AG 0.1 mM, AcCoA 0.5 mM, Eis 0.5 μM
Eis_Ava [4] = molecular target: T2, Eis_Ava; assay: Number of acetylations of AGs by Eis_Ava; type: biochemical; details: mass spectrometry; AG 0.67 mM, AcCoA 6.7 mM, Eis_Ava 10 μM, overnight at rt
Eis_Mtb [5] = molecular target: T1, Eis_Mtb; details: cited from earlier work
Eis_Msm [6] = details: cited from earlier work
Eis_Mtb [7] = molecular target: T1, Eis_Mtb; details: transfer onto a few AGs; cited from earlier work
Eis_Ava [8] = molecular target: T2, Eis_Ava; assay: Acyl-CoA cosubstrate profile of Eis_Ava; type: biochemical; details: 6 acyl-CoA cosubstrates tested
Eis_Ava [9] = molecular target: T2, Eis_Ava; assay: Regio-specificity of NEA acetylation by Eis_Ava; type: biochemical
Eis_Mtb [10] = molecular target: T1, Eis_Mtb; type: biochemical; details: 500 μM AcCoA, apparent
Eis_Msm [11] = molecular target: T3, Eis_Msm; type: biochemical; details: read-out: IC50 Eis_Msm; NEO acetylation
Eis_Ava [12] = assay: biochemical; type: biochemical
Eis_Ava [13] = molecular target: T2, Eis_Ava; assay: biochemical; type: biochemical
[14] = test system: NC[C@@H]1O[C@H](O[C@H]2[C@@H](O)[C@H](O[C@@H]3[C@@H](O)[C@H](N)C[C@H](N)[C@H]3O[C@H]3O[C@H](CO)[C@@H](O)[C@H](O)[C@H]3N)O[C@@H]2CO)[C@H](N)[C@@H](O)[C@@H]1O; assay: purified protein, by the assay type; type: biochemical, Anabaena variabilis; details: other: Eis_Ava […], 500 μM AcCoA, apparent, pH 7.5
[15] = test system: NC[C@H]1O[C@H](O[C@H]2[C@H](O)[C@@H](O)[C@H](N)C[C@@H]2N)[C@H](N)[C@@H](O)[C@@H]1O; assay: purified protein, by the assay type; type: biochemical, Anabaena variabilis; details: other: Eis_Ava […], 500 μM AcCoA, apparent, pH 7.5
[16] = test system: NC[C@@H]1O[C@H](O[C@H]2[C@@H](O)[C@H](O[C@@H]3[C@@H](O)[C@H](N)C[C@H](N)[C@H]3O[C@H]3O[C@H](CN)[C@@H](O)[C@H](O)[C@H]3N)O[C@@H]2CO)[C@H](N)[C@@H](O)[C@@H]1O; assay: purified protein, by the assay type; type: biochemical, Anabaena variabilis; details: other: Eis_Ava […], 500 μM AcCoA, apparent, pH 7.5
[17] = test system: CN[C@@H]1[C@@H](O[C@H]2O[C@H](CO)[C@@H](N)[C@H](O)[C@H]2O)OC2C[C@@H](N)[C@@H](O[C@H]3[C@H](O)[C@@H](O)[C@H](N)C[C@@H]3N)OC2[C@@H]1O; assay: purified protein, by the assay type; type: biochemical, Anabaena variabilis; details: other: Eis_Ava […], 500 μM AcCoA, apparent, pH 7.5
[18] = test system: NC[C@@H]1O[C@H](O[C@H]2[C@@H](O)[C@H](O[C@@H]3[C@@H](O)[C@H](N)C[C@H](N)[C@H]3O[C@H]3O[C@H](CO)[C@@H](O)[C@H](O)[C@H]3N)O[C@@H]2CO)[C@H](N)[C@@H](O)[C@@H]1O; assay: purified protein, by the assay type; type: biochemical, Mycobacterium smegmatis; details: other: Eis_Msm […], 500 μM AcCoA, apparent, pH 7.5
[19] = test system: NC[C@H]1O[C@H](O[C@H]2[C@H](O)[C@@H](O)[C@H](N)C[C@@H]2N)[C@H](N)[C@@H](O)[C@@H]1O; assay: purified protein, by the assay type; type: biochemical, Mycobacterium smegmatis; details: other: Eis_Msm […], 500 μM AcCoA, apparent, pH 7.5
[20] = test system: NC[C@@H]1O[C@H](O[C@H]2[C@@H](O)[C@H](O[C@@H]3[C@@H](O)[C@H](N)C[C@H](N)[C@H]3O[C@H]3O[C@H](CN)[C@@H](O)[C@H](O)[C@H]3N)O[C@@H]2CO)[C@H](N)[C@@H](O)[C@@H]1O; assay: purified protein, by the assay type; type: biochemical, Mycobacterium smegmatis; details: other: Eis_Msm […], 500 μM AcCoA, apparent, pH 7.5
[21] = test system: CN[C@@H]1[C@@H](O[C@H]2O[C@H](CO)[C@@H](N)[C@H](O)[C@H]2O)OC2C[C@@H](N)[C@@H](O[C@H]3[C@H](O)[C@@H](O)[C@H](N)C[C@@H]3N)OC2[C@@H]1O; assay: purified protein, by the assay type; type: biochemical, Mycobacterium smegmatis; details: other: Eis_Msm […], 500 μM AcCoA, apparent, pH 7.5
[22] = test system: NC[C@H]1O[C@H](O[C@H]2[C@H](O)[C@@H](O)[C@H](N)C[C@@H]2N)[C@H](N)[C@@H](O)[C@@H]1O; assay: purified protein, by the assay type; type: biochemical, Mycobacterium tuberculosis; details: other: Eis_Mtb […], 500 μM AcCoA, apparent, pH 7.5

T1 sequence (P9WFK7 whole entry): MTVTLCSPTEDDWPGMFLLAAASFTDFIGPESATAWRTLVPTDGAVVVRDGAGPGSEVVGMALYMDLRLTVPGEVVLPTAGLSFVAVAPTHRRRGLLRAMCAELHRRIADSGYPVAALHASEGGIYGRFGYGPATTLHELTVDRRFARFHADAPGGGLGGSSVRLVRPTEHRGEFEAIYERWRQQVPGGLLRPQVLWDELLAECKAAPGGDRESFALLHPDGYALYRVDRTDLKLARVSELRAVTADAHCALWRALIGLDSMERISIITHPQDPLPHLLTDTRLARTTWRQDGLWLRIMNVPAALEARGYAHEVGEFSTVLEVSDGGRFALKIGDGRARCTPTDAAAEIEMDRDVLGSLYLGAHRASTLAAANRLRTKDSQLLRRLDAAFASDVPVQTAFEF

NCC(=O)NCC1OC(OC2C(N)CC(N)C(OC3OC(CO)C(O)C(N)C3O)C2O)C(O)C(O)C1O (stereo not shown) [6′-glycinyl-KAN]
acetylation by Eis_Mtb (UV-Vis) (Eis_Mtb [1]): not a substrate; also recorded: almost inactive | acetylation by Eis_Ava (UV-Vis) (Eis_Ava [2]): not a substrate; also recorded: almost inactive | acetylation by Eis_Msm (UV-Vis) (Eis_Msm [3]): not a substrate; also recorded: almost inactive

CN[C@@H]1[C@@H](O[C@H]2O[C@H](CO)[C@@H](N)[C@H](O)[C@H]2O)OC2C[C@@H](N)[C@@H](O[C@H]3[C@H](O)[C@@H](O)[C@H](N)C[C@@H]3N)OC2[C@@H]1O (stereo partly shown) [APR, apramycin]
number of acetylations by Eis_Ava (Eis_Ava [4]): mono-acetylated | substrate of Eis_Mtb (Eis_Mtb [5]): not be a substrate | number of acetylations by Eis_Msm (Eis_Msm [6]): Di-acetylation

CC(=O)SCCNC(=O)CCNC(=O)[C@H](O)C(C)(C)COP(=O)(O)OP(=O)(O)OC[C@H]1O[C@@H](n2cnc3c(N)ncnc32)[C@H](O)[C@@H]1OP(=O)(O)O [AcCoA]
acceptance as cosubstrate by Eis_Mtb (Eis_Mtb [7]): efficiently accepting | acceptance as cosubstrate by Eis_Ava (Eis_Ava [8]): accepted

NC[C@H]1O[C@H](O[C@H]2[C@H](O)[C@@H](O)[C@H](N)C[C@@H]2N)[C@H](N)[C@@H](O)[C@@H]1O [NEA, neamine]
positions sequentially acetylated by Eis_Mtb (Eis_Mtb [5]): 2′-, 6′-, and 1-position | positions sequentially acetylated by Eis_Msm (Eis_Msm [6]): 2′-, 6′-, and 1-position | number of acetylations of NEA by Eis_Ava observed by TLC and NMR (Eis_Ava [9]): di-acetylation | first position acetylated by Eis_Ava (Eis_Ava [9]; TLC and NMR): 2′-position | second site modified by Eis_Ava (Eis_Ava [9]; TLC and NMR): 1-position

NC[C@@H]1O[C@H](O[C@H]2[C@@H](O)[C@H](O[C@@H]3[C@@H](O)[C@H](N)C[C@H](N)[C@H]3O[C@H]3O[C@H](CO)[C@@H](O)[C@H](O)[C@H]3N)O[C@@H]2CO)[C@H](N)[C@@H](O)[C@@H]1O [PAR, paromomycin]
Km (Eis_Mtb [10]): 110 ± 21 µM | kcat (Eis_Mtb [10]): 0.136 ± 0.012 s⁻¹ | number of acetylations by Eis_Ava (Eis_Ava [4]): tri-acetylation | number of acetylations by Eis_Mtb (Eis_Mtb [5]): di-acetylation | number of acetylations by Eis_Msm (Eis_Msm [6]): tri-acetylation

CN[C@@H]1[C@H](O)[C@H](NC)[C@H]2O[C@@]3(O)C(=O)C[C@@H](C)O[C@H]3O[C@@H]2[C@H]1O [SPT, spectinomycin]
number of acetylations by Eis_Ava (Eis_Ava [4]): not be substrates

[H]/N=C(/N)N[C@H]1[C@H](O)[C@@H](O)[C@H](O[C@@H]2O[C@@H](C)[C@](O)(C=O)[C@H]2O[C@@H]2O[C@@H](CO)[C@H](O)[C@@H](O)[C@@H]2NC)[C@@H](N/C(N)=N\[H])[C@@H]1O [STR, streptomycin]
number of acetylations by Eis_Ava (Eis_Ava [4]): not be substrates

[H]/N=C(\N/C(=N/[H])NCCCCCCNC(=N)NC(=N)Nc1ccc(Cl)cc1)Nc1ccc(Cl)cc1 [compound 1, chlorhexidine]
IC50 (Eis_Msm [11]): 1.85 ± 0.39 µM | IC50 for Eis_Ava fold higher than against Eis_Msm (Eis_Ava [12]): 11 fold | IC50 for Eis_Ava fold higher than for Eis_Mtb (Eis_Ava [12]): 107 fold | IC50 (Eis_Ava [13]): 20 ± 7 µM

C/C=C/C(=O)SCCNC(=O)CCNC(=O)[C@H](O)C(C)(C)COP(=O)(O)OP(=O)(O)OC[C@H]1O[C@@H](n2cnc3c(N)ncnc32)[C@H](O)[C@@H]1OP(=O)(O)O [crotonyl-CoA]
acceptance as cosubstrate by Eis_Mtb (Eis_Mtb [7]): moderately so

CC(C)(COP(=O)(O)OP(=O)(O)OC[C@H]1O[C@@H](n2cnc3c(N)ncnc32)[C@H](O)[C@@H]1OP(=O)(O)O)[C@@H](O)C(=O)NCCC(=O)NCCSC(=O)CC(=O)O [malonyl-CoA]
acceptance as cosubstrate by Eis_Mtb (Eis_Mtb [7]): moderately so

CCC(=O)SCCNC(=O)CCNC(=O)[C@H](O)C(C)(C)COP(=O)(O)OP(=O)(O)OC[C@H]1O[C@@H](n2cnc3c(N)ncnc32)[C@H](O)[C@@H]1OP(=O)(O)O [n-propionyl-CoA]
acceptance as cosubstrate by Eis_Mtb (Eis_Mtb [7]): efficiently accepting | acceptance as cosubstrate by Eis_Ava (Eis_Ava [8]): accepted

Eis_Ava (Trichormus variabilis ATCC 29413)
Km [14]: 237 ± 36 µM | kcat [14]: 0.183 ± 0.013 s⁻¹ | kcat/Km [14]: 773 ± 132 M⁻¹ s⁻¹ | Km [15]: 42 ± 9 µM | kcat [15]: 0.352 ± 0.021 s⁻¹ | kcat/Km [15]: 7410 ± 1940 M⁻¹ s⁻¹ | Km [16]: 101 ± 16 µM | kcat [16]: 0.106 ± 0.006 s⁻¹ | kcat/Km [16]: 1050 ± 184 M⁻¹ s⁻¹ | Km [17]: 337 ± 98 µM | kcat [17]: 0.019 ± 0.002 s⁻¹ | kcat/Km [17]: 57 ± 18 M⁻¹ s⁻¹

Eis_Msm (Mycolicibacterium smegmatis MC2 155)
Km [18]: 738 ± 158 µM | kcat [18]: 0.235 ± 0.033 s⁻¹ | kcat/Km [18]: 318 ± 82 M⁻¹ s⁻¹ | Km [19]: 1302 ± 312 µM | kcat [19]: 0.687 ± 0.083 s⁻¹ | kcat/Km [19]: 528 ± 142 M⁻¹ s⁻¹ | Km [20]: 110 ± 14 µM | kcat [20]: 0.148 ± 0.006 s⁻¹ | kcat/Km [20]: 1340 ± 180 M⁻¹ s⁻¹ | Km [21]: 150 ± 43 µM | kcat [21]: 0.019 ± 0.002 s⁻¹ | kcat/Km [21]: 127 ± 39 M⁻¹ s⁻¹

Eis_Mtb (Mycobacterium tuberculosis H37Rv)
Km [22]: 1315 ± 492 µM | kcat [22]: 0.699 ± 0.136 s⁻¹ | kcat/Km [22]: 532 ± 224 M⁻¹ s⁻¹

kanamycin A
acetylation by Eis_Mtb (UV-Vis) (Eis_Mtb [1]): efficiently gets multi-acetylated | acetylation by Eis_Ava (UV-Vis) (Eis_Ava [2]): efficiently gets multi-acetylated | acetylation by Eis_Msm (UV-Vis) (Eis_Msm [3]): efficiently gets multi-acetylated
